# Measured values from patent publication US7705188B2 (Arizona Board of Regents, a body corporate of the State of …, priority 2002, dated 2010).
# Like-named read-outs stand apart in the source and are kept apart here.
# How the values were obtained:
# [1] = test system: NCI-H460; assay: Cytotoxicity, lung-NSC NCI-H460; assay type: cell-based, human; conditions: for GI50: Homo sapiens, NCI-H460, NCI-H460, read-out: Lung-NSC NCI-H460 GI50
# [2] = test system: DU-145; assay: Cytotoxicity, prostate DU-145; assay type: cell-based, human; conditions: for GI50: Homo sapiens, DU-145, DU-145
# [3] = test system: SF-268; assay: Cytotoxicity, CNS SF-268; assay type: cell-based, human; conditions: for GI50: Homo sapiens, SF-268, SF-268, read-out: CNS SF-268 GI50
# [4] = test system: KM201.2; assay: Cytotoxicity, colon KM201.2; assay type: cell-based, human; conditions: KM201.2; for GI50: Homo sapiens, read-out: Colon KM201.2 GI50
# [5] = test system: BXPC-3; assay: Cytotoxicity, pancreas-a BXPC-3; assay type: cell-based, human; conditions: for GI50: Homo sapiens, BXPC-3, BXPC-3
# [6] = test system: Escherichla coli; assay: Antimicrobial broth microdilution, MIC; assay type: cell-based; conditions: Escherichla coli
# From the text: (§1) Stilbene production has been correlated with the resistance of grape leaves to fungal infection.
# [7] = test system: Stenotrophomonas maltophilia; assay: Antimicrobial broth microdilution, MIC; assay type: cell-based
# From the text: as §1
# [8] = test system: Staphylococcus aureus; assay: Antimicrobial broth microdilution, MIC; assay type: cell-based
# From the text: as §1
# [9] = test system: Cryptococcus neoformans; assay: Antimicrobial broth microdilution, MIC; assay type: cell-based
# From the text: as §1
# [10] = test system: Enterococcus faecalis; assay: Antimicrobial broth microdilution, MIC; assay type: cell-based; conditions: for MIC: read-out: Minimum inhibitory concentration
# From the text: as §1
# [11] = test system: Enterobacter cloacae; assay: Antimicrobial broth microdilution, MIC; assay type: cell-based
# From the text: as §1
# [12] = test system: Neisseria gonorrhoeae; assay: Antimicrobial broth microdilution, MIC; assay type: cell-based; conditions: Neisseria gonorrhoeae
# From the text: as §1
# [13] = test system: Candida albicans; assay: Antimicrobial broth microdilution, MIC; assay type: cell-based
# From the text: as §1
# [14] = test system: Streptococcus pneumoniae; assay: Antimicrobial broth microdilution, MIC; assay type: cell-based
# From the text: as §1
# [15] = test system: Micrococcus luteus; assay: Antimicrobial broth microdilution, MIC; assay type: cell-based
# From the text: as §1
# [16] = test system: P-388 and human tumor cell lines; assay: Cytotoxicity, summary over P-388 and human tumor cell lines; assay type: cell-based
# [17] = test system: MCF-7; assay: Cytotoxicity, breast MCF-7; assay type: cell-based, human; conditions: for GI50: Homo sapiens, MCF7
# [18] = read-out: Minimum inhibitory concentration
compound,measurement,setting,value
COc1ccc(C(O)c2cc(OC)cc(OC)c2)cc1 (stereo not shown) [Compound 15a],Lung-NSC NCI-H460 GI50,[1],21.7 µg/mL
same,Prostate DU-145 GI50,[2],23.2 µg/mL
same,CNS SF-268 GI50,[3],23.3 µg/mL
same,Colon KM201.2 GI50,[4],21.0 µg/mL
same,Pancreas-a BXPC-3 GI50,[5],16.1 µg/mL
COc1ccc(C(=O)c2cc(O)cc(O)c2)cc1 [Compound 16e],Minimum inhibitory concentration,[6],* (no inhibition at 64 μg/ml)
same,Minimum inhibitory concentration,[7],* (no inhibition at 64 μg/ml)
same,Minimum inhibitory concentration,[8],* (no inhibition at 64 μg/ml)
same,Minimum inhibitory concentration,[9],* (no inhibition at 64 μg/ml)
same,Minimum inhibitory concentration,[10]; first line (r12),* (no inhibition at 64 μg/ml)
same,Minimum inhibitory concentration,[10]; second line (r15),* (no inhibition at 64 μg/ml)
same,Minimum inhibitory concentration,[11],* (no inhibition at 64 μg/ml)
same,Minimum inhibitory concentration,[12],* (no inhibition at 64 μg/ml)
same,Minimum inhibitory concentration,[13],* (no inhibition at 64 μg/ml)
same,Minimum inhibitory concentration,[14],* (no inhibition at 64 μg/ml)
same,Minimum inhibitory concentration,[15],* (no inhibition at 64 μg/ml)
"COc1ccc(C=Cc2cc(O)cc(OC)c2)cc1 [Compound 14h, 3-hydroxy-4′,5-dimethoxystilbene]",MIC,[6]; [18],> 64 µg/mL
same,MIC,[7]; [18],> 64 µg/mL
same,MIC,[8]; [18],> 64 µg/mL
same,MIC,[10]; first line (r12),> 64 µg/mL
same,MIC,[10]; second line (r15),> 64 µg/mL
same,MIC,[11]; [18],> 64 µg/mL
same,MIC,[13]; [18],> 64 µg/mL
same,MIC,[14]; [18],> 64 µg/mL
same,MIC,[15]; [18],16 to 64 µg/mL
same,"Cytotoxicity against cancer cell lines, comparison in words",[16],slightly less active than their cis counterparts
"Oc1ccc(/C=C\c2cc(O)cc(O)c2)cc1 [Compound 1b, cis-Resveratrol]",GI50,[1],13.2 µg/mL
same,GI50,[2],10.2 µg/mL
same,GI50,[3],5 µg/mL
same,GI50,[4],22 µg/mL
same,GI50,[17],14.8 µg/mL
same,"Cytotoxicity against cancer cell lines, comparison in words",[16],slightly less inhibitory effects on the cancer cell lines tested than did the trans-isomer
same,GI50,[5],15.5 µg/mL
"COc1cc(/C=C/c2ccc(O)cc2)cc(OC)c1 [Compound 14d, (E)-3,5-dimethoxy-4′-hydroxy-stilbene]",GI50,[1],2.7 µg/mL
same,GI50,[2],2.7 µg/mL
same,GI50,[3],4.3 µg/mL
same,GI50,[4],3.4 µg/mL
same,GI50,[17],2.3 µg/mL
same,"Cytotoxicity against cancer cell lines, comparison in words",[16],slightly less active than their cis counterparts
same,GI50,[5],6.5 µg/mL
"COc1ccc(C=Cc2cc(O)cc(O)c2)cc1 [Compound 14l, 3,5-dihydroxy-4′-methoxy-stilbene]",Lung-NSC NCI-H460 GI50,[1],6.8 µg/mL
same,Prostate DU-145 GI50,[2],2.7 µg/mL
same,CNS SF-268 GI50,[3],3.1 µg/mL
same,Colon KM201.2 GI50,[4],3.8 µg/mL
same,Breast MCF-7 GI50,[17],3.4 µg/mL
same,"Cytotoxicity against cancer cell lines, comparison in words",[16],slightly less active than their cis counterparts
same,Pancreas-a BXPC-3 GI50,[5],6.3 µg/mL
"COc1ccc(C=Cc2cc(OC)cc(OC)c2)cc1 [Compound 4b, 3,4′,5-trimethoxystilbene]",Lung-NSC NCI-H460 GI50,[1],0.62 µg/mL
same,Prostate DU-145 GI50,[2],1.5 µg/mL
same,CNS SF-268 GI50,[3],0.56 µg/mL
same,"Cytotoxicity against cancer cell lines, comparison in words",[16],superior in activity to resveratrol (1)
same,Pancreas-a BXPC-3 GI50,[5],0.35 µg/mL
Sodium Resverastatin Phosphate [Compound 14n],Breast MCF-7 GI50,[17],0.73 µg/mL
same,"Cytotoxicity against cancer cell lines, comparison in words",[16],essentially identical to 14c
"COc1cc(/C=C\c2ccccc2)cc(OC)c1OP(=O)(OCc1ccccc1)OCc1ccccc1 [Compound 14m, (Z)-3,5-dimethoxy-4-[O-bis(benzyl)phosphoryl]-stilbene]",Lung-NSC NCI-H460 GI50,[1],10.7 µg/mL
same,Prostate DU-145 GI50,[2],35.6 µg/mL
same,CNS SF-268 GI50,[3],38.5 µg/mL
same,Colon KM201.2 GI50,[4],24.7 µg/mL
same,Breast MCF-7 GI50,[17],9.0 µg/mL
same,Pancreas-a BXPC-3 GI50,[5],5.4 µg/mL
"COc1ccc(C=Cc2cc(O)cc(OC)c2)cc1 [Compound 14g, 3-hydroxy-4′,5-dimethoxystilbene]","Cytotoxicity against cancer cell lines, comparison in words",[16],comparable to that of resveratrol
